Like-named read-outs stand apart in the source and are kept apart here. Where a SMILES comes first, the peptide text is derived from it. [ ]: non-standard residue; d: D form. pGlu = O=C1CC[C@@H](C(=O)O)N1
Key:
[1] = Pharmacokinetics studies in mice (i.v. and s.c. bolus, plasma LC–MS/MS); assay type: in vivo; details: mouse; for AUC: tail vein blood over 90 min
Experimental: Male and female mice aged between 12–18 weeks old were used for these studies. Gast p59−79, ChgA 435−462a and Sst 25−36 were administered intravenously (i.v.) at 1 mg/kg and subcutaneously (s.c.) at various doses (see Fig. 7A, B and C for details on specific doses for each peptide). Blood samples were collected using EDTA coated microvette tubes (Starsedt, Leicester, UK) from the tail vein at various time points over 90 min. Blood was centrifuged (2000 g, 10 min, 4 °C) and the plasma separated. A 0.1 M sodium citrate (Sigma-Aldrich) buffer (adjusted to pH 3 with citric acid (Sigma-Aldrich)) was added to the plasma at a dilution of 1 in 10 to prevent degradation of Gast p59−79 and Sst 25−36. Plasma was stored -70 °C till extraction.
On the day of analysis, plasma samples were thawed, spiked with a stable isotope labelled version of Gast p59−79, ChgA 435−462a or Sst 25−36, and crashed with 200 μL 80 % ACN. After centrifuging, supernatants were removed and dried under gaseous nitrogen at 40 °C using a SPE Dry evaporator system (Biotage, Upsalla, Sweden). SPE was performed as described previously.
A Xevo TQ-XS triple quadrupole mass spectrometer coupled to H-class Aquity UPLC system enabled high throughput and targeted sample analysis. The column used was a Waters HSS T3 2.1 × 50 mm column at 60 °C and flowing at 350 μL/min. LC–MS/MS analysis was performed using positive ESI with a spray voltage of 3 kV, desolvation temperature 600°C, gas flow rate 1000 L/h and cone voltage of 40 V. Solvent A was 0.1 % FA in water (v/v) and Solvent B was 0.1 % FA in ACN (v/v). Each sample (40 μL per sample) was injected onto the column for 30 s with starting conditions set at 90 % A and 10 % B before the % B was increased to 50 % over the course of 3.5 min. The column was flushed with 90 % B for 1.5 min before initial conditions were restored. Total run time per sample was 5.5 min. Table 1 details the specifications used to quantify Gast p59−79, ChgA 435−462a, Sst 25−36 and their stable isotope labelled versions on a Xevo TQ-XS mass spectrometer.
Raw data files obtained on the Xevo TQ-XS triple quadrupole mass spectrometer were analysed using TargetLynx XS v4.2 software (Waters). Peptides were quantified by integrating the corresponding peaks and normalised to an internal standard if available. For pharmacokinetics studies, the concentration of peptide was estimated by comparing against a calibration line. SAAM II v2.2.1 (The Epsilon Group) with a Rosenbrock integrator and no maximum number of iterations was used to create a model for Gast p59−79 distribution and elimination upon single dose administration to mice.

lean mice = test: 1st osmotic pump study: 28-day infusion, body weight, food intake, weekly IP GTT; assay type: in vivo, mouse; details: n = 5/group
Experimental: Three studies were performed to assess the in vivo efficacy of the ChgA 435−462a and Gast p59−79 (see Figure legends for specifics of each study). Peptides were administered by osmotic pumps implanted subcutaneously under isoflurane anaesthesia. Food intake was assessed using BioDaq (Research Diets) automated food intake cages. Intraperitoneal (IP) glucose tolerance tests (GTT) were performed by administering a 2 g/kg challenge of glucose and measuring blood glucose levels from the tail vein whereas oral GTT (OGTT) were performed using 1 g/kg glucose challenge. Insulin tolerance tests (ITT) were performed by administering a 0.75 U/kg dose of insulin IP to the mice and assessing blood glucose levels at 15, 30, 45, 60, 90 and 120 min post-insulin challenge.
Fig. 7 In vivo characterisation of novel peptides. (A-C) PK data of ChgA 435-462a, Gast p59-79, Sst 25-36. (D-G) Data from 1st osmotic pump study where n = 5/group. […] Body weights (E) and food intake (D) were measured throughout the study. Week 0 and day -7 represent baseline data prior to treatment onset. Glucose tolerance was assessed every 7 days after surgery via an IP GTT using a 2 g/kg glucose challenge. […] Statistical analysis performed using Kruskal-Wallis test with post-hoc Dunn tests. […] Mice singly housed and infused with either Gast p59-79 or vehicle for 7 days. […] Mice singly housed and infused with either Gast p59-79 or vehicle for 7 days. 2 g/kg IP GTT performed on day 7 (J, K) and 1 g/kg OGTT performed on day 14 (L, M). 0.75 U/kg ITT performed on day 21 (N, O). Body weights vs AUC during ITT on day 21 (P). Error bars represent SD. *P < 0.05, **p < 0.01, ***p < 0.005.

primary mouse islets = test: Islet secretion studies; assay type: cell-based; details: 100 nM peptide, 1 or 16.7 mM glucose, 45 min at 37 °C, LC–MS/MS, n = 9 per group, Mann-Whitney U test
Experimental: Mice were culled by cervical dislocation and the pancreas inflated by […] injection of a 0.75 mg/mL collagenase V (Sigma-Aldrich) solution in HBSS before removal of the pancreas. The pancreas was incubated at 37 °C for 12 min to liberate islets. The digested tissue was washed in HBSS with 0.1 % BSA before islets were hand-picked under a light microscope. Islets were rested for 1 h by incubating at 37 °C in Krebs’s ringer buffer (KRB, 129 mM NaCl, 2 mM NaHCO3, 4.8 mM KCl, 1.2 mM KH2PO4, 2.5 mM CaCl2, 1.2 mM MgSO4, 10 mM HEPES and adjusted to pH 7.4 with 1 M NaOH.) with 0.1 % BSA and 5.5 mM glucose. Ten size matched islets were then transferred to a 2 mL protein LoBind Eppendorf tubes for 45 min at 37 °C with KRB + 0.001% BSA + one of the following: 1 mM glucose, 16.7 mM glucose, 1 mM glucose + 100 nM Gast p59−79 or 16.7 mM glucose + 100 nM Gast p59−79. At the end of the incubation the supernatant was removed and snap frozen. On the day of analysis all supernatants were defrosted, acidified with 30 μL of 1% FA (aq) (v/v) and extracted with SPE.
Peptides were quantified on as in section 2.8.3. Table 2 details the peptides quantified as well as their product ions, precursor ions, collision energies and dwell times.
Fig. 9 Effect of Gast p59-79 on glucagon (A), insulin-1 (B) and SST-14 (C) secretion from isolated mouse islets. Data represents n = 9 per group. Statistical analysis was performed using a Mann-Whitney U test. Data expressed as peak area normalised to islet number.

CC[C@H](C)[C@H](NC(=O)[C@H](Cc1ccccc1)NC(=O)[C@H](Cc1c[nH]cn1)NC(=O)[C@H](CCC(N)=O)NC(=O)[C@@H]1CCCN1C(=O)CNC(=O)[C@H](CCC(N)=O)NC(=O)[C@@H]1CCCN1C(=O)CNC(=O)[C@H](CC(C)C)NC(=O)[C@@H]1CCC(=O)N1)C(=O)N[C@@H](C)C(=O)N[C@@H](CC(=O)O)C(=O)N[C@@H](CC(C)C)C(=O)N[C@@H](CO)C(=O)N[C@@H](CCCCN)C(=O)N[C@@H](CCCCN)C(=O)N[C@@H](CCC(N)=O)C(=O)N[C@@H](CCCNC(=N)N)C(=O)N1CCC[C@H]1C(=O)N[C@@H](CCCNC(=N)N)C(=O)O [Gast p59−79] ([pGlu]LGPQGPQHFIADLSKKQRPR-OH; C-terminus assumed)
AUC ([1]; both sexes, C57BL/6 N J, iv, 1 mg/kg, plasma LC–MS/MS): 503 ng·h/mL
Clearance ([1]; both sexes, C57BL/6 N J, plasma, iv, i.v., 1 mg/kg, read-out: Clearance (converted)): 0.332
AUC ([1]; both sexes, C57BL/6 N J, sc, 10 mg/kg, plasma LC–MS/MS): 558 ng·h/mL
half-life ([1]; both sexes, C57BL/6 N J, sc, administered subcutaneously, plasma LC–MS/MS): 18.1 min
mass delivery rate required to obtain steady state concentration of 1 nM ([1]; estimated from PK data (SAAM II model), osmotic pump infusion): 0.77 mg/kg/day
Clearance ([1]; s.c., 10 mg/kg): 0.298 mL/min/kg
Bioavailability (%) ([1]; s.c., 10 mg/kg, plasma LC–MS/MS): 110%
bioavailability when administered subcutaneously (in words) ([1]; s.c., text summary of table S1): good bioavailability
food intake compared with controls (lean mice; 6-8 week old male mice, BioDAQ cages, osmotic pump 28 days, ChgA 435-462a 0.3, Gast p59-79 0.8, exenatide 0.03 mg/kg/day, vs PBS): No significant differences
body weight compared with controls (lean mice; 6-8 week old male mice, osmotic pump 28 days, ChgA 435-462a 0.3, Gast p59-79 0.8, exenatide 0.03 mg/kg/day, vs PBS): No significant differences
IP GTT AUC analyses (lean mice; lean male mice, Gast p59-79 0.8 mg/kg/day, IP GTT 2 g/kg, Kruskal-Wallis with Dunn tests): did not reach significance
glucose tolerance in IP GTT (blood glucose) (lean mice; lean male mice, osmotic pump 28 days, IP GTT 2 g/kg glucose every 7 days, ChgA 435-462a 0.3, Gast p59-79 0.8, exenatide 0.03 mg/kg/day, vs PBS): Small but significant improvements in individual time point glucose levels
SST-14 secretion from isolated islets (primary mouse islets): No significant effect
glucagon secretion from isolated islets (primary mouse islets): No significant effect
insulin-1 secretion from isolated islets (primary mouse islets): No significant effect
